Like-named read-outs stand apart in the source and are kept apart here.
Legend:
[1] = set-up: species or system rabbits; settings: rabbit, in vivo
Procedure: (§1) Rabbit aortic balloon-injury model. Four groups of male New Zealand White rabbits (1.8-2.2 kg, Merunga Farm, Coffs Harbour, Australia), matched for body weight and baseline plasma cholesterol, were fed 100 g per day of normal chow±1% probucol, 0.02% DTBP, or 0.02% BP (wt/wt) for up to nine weeks. Aortic balloon-injury (ABI) was carried out at the end of week three, resulting in complete endothelial denudation. Harvesting of aortas was done after a further 6 weeks (n=6 per group). Aortic lesion assessment was carried out at the 3rd pair of lumber arteries in NZW rabbits as described in Circulation 2003, 107:2031-2036. Statistics. Data are expressed as mean±SEM. One-way ANOVA and the student-Newman-Keul's test were used to evaluate differences between groups, with P<0.05 considered significant.
To control for probucol's cholesterol-lowering effect, the animals were matched for baseline plasma cholesterol, and fed them a limited amount (100 g/day) of standard diet±the respective drug.

apoE−/− mice = experiment: Atherosclerosis in apoE−/− mice: probucol versus DTBP versus BP, 5 months; format: in vivo; settings: for Atherosclerosis (lesion size) at the arch and descending aorta: 1% probucol, 0.02% BP; for Macrophages lesion area (Mac-3+): FIG. 12a, f; for Plasma cholesterol: FIG. 12c; for Proliferating cells (PCNA+): FIG. 12g; for Aortic content of neutral lipids (cholesterylesters and triglycerides): FIG. 12d
Text: ApoE−/− mouse model. Four groups of male apoE−/− mice (8-10 weeks, Animal Resources Centre, Perth, Australia) were fed a high fat diet based on Harlan Teklad diet TD88137±1% (wt/wt) probucol (96% purity, a gift from AstraZeneca, Sweden), 0.02% DTBP, or 0.02% BP (Polysciences, Warrington, Pa.) for 5 months. Tissue harvesting and analyses were done as described in Examples 1 and 3, using 15 and 10 mice of each group for biochemical and histological analyses, respectively. Histology and immunohistochemistry. Aortic lesion assessment was carried out at four sites (sinus, arch, thoracic and abdominal aorta) as described in Example 1. Immediately adjacent sections were employed for immunohistochemistry, using Mac-3 (macrophages, dilution 1:200, DAKO), PCNA (cell proliferation, dilution 1:500, DAKO) and anti-rat HO-1 monoclonal antibody (dilution 1:50, Santa Cruz) with avidin-biotin-horseradish peroxidase for signal detection (Vectorstain Elite ABC Kit, Vector Laboratories). Apoptosis was assessed using the TUNEL assay kit (Roche) according to the manufacture's instructions. Digital images were taken for quantitative morphometric analysis. Mac-3^+ areas were determined using Adobe Photoshop V6.0 by tracing. Total cell profiles, TUNEL^+ and PCNA^+ cells were counted manually at high magnification (40× objective). A single operator using coded samples performed all analyses blinded. Heme oxygenase. Heme oxygenase activity was determined in microsomes prepared from homogenized aortic tissue and assessed by HPLC as described in Circulation 2004, 110: 1855-1860. Statistics. All data are expressed as mean±SEM. One-way ANOVA and the student-Newman-Keul's test were used to evaluate differences between groups, with P<0.05 considered significant.

[2] = system: New Zealand White rabbits; experiment: Rabbit aortic balloon-injury model: intimal hyperplasia; format: in vivo; settings: for Intimal thickening / intima-to-media ratio after aortic balloon injury: 1% probucol, 0.02% DTBP, 0.02% BP, FIG. 13a, b; for Plasma total cholesterol concentration: rabbits, FIG. 13e
Procedure: as §1
Materials and methods were as described in Examples 6 and 7, with the following addition. DTBP-s and STBP were synthesized as described in Example 10. A total of 48 New Zealand White rabbits (1.8-2.2 kg) were used for this example. Rabbits were fed normal chow (100 g/day) without (Ctrl, n=12) or with 0.02% DTBP (wt/wt, n=6), 0.02% STBP (wt/wt, n=7), 0.02% DTBP-s (wt/wt, n=11) or 0.1% DTBP-s (wt/wt, n=7) for 9 weeks. Aortic balloon-injury was carried out at the end of week three.

heme oxygenase-1 (HO-1) = experiment: Heme oxygenase-1 expression, mRNA and heme oxygenase activity in rabbit aorta after balloon injury; format: in vivo, rabbits; settings: for HO-1 expression in the media of damaged aortas (immunohistochemistry): 4 days after balloon injury, FIG. 16a; for Tissue levels of HO-1 mRNA / Heme oxygenase activity in aorta: 4 days after ABI; for Tissue levels of HO-1 mRNA: FIG. 16b; for Heme oxygenase activity in aorta: FIG. 16c

| Structure (SMILES) | Total drug in the vessel wall [1] | Atherosclerosis (lesion size) at the arch and descending aorta (apoE−/− mice; 0.02% DTBP, 5 months, FIG. 12b) | Macrophages lesion area (Mac-3+) (apoE−/− mice; apoE−/− mice, 5 months) | Plasma cholesterol (apoE−/− mice; apoE−/− mice, 5 months) | Proliferating cells (PCNA+) (apoE−/− mice; apoE−/− mice, 5 months) | Intimal thickening / intima-to-media ratio after aortic balloon injury ([2]; 6 weeks after ABI) | Plasma total cholesterol concentration [2] | HO-1 expression in the media of damaged aortas (immunohistochemistry) (heme oxygenase-1 (HO-1)) | Aortic content of neutral lipids (cholesterylesters and triglycerides) (apoE−/− mice; apoE−/− mice, 5 months) | Tissue levels of HO-1 mRNA (heme oxygenase-1 (HO-1)) | Heme oxygenase activity in aorta (heme oxygenase-1 (HO-1)) | further results |
| --- | --- | --- | --- | --- | --- | --- | --- | --- | --- | --- | --- | --- |
| CC(C)(C)c1cc(-c2cc(C(C)(C)C)c(O)c(C(C)(C)C)c2)cc(C(C)(C)C)c1O [BP, 3,3′,5,5′-tetra-tert-butyl-4,4′-bisphenol] | 614±258 pmol total drug per mg protein | failed | failed to affect | failed | failed to affect | lacked protective activity | significantly reduced | but not BP, induced HO-1 expression | – | – | – | – |
| CC(C)(C)c1cc(SSc2cc(C(C)(C)C)c(O)c(C(C)(C)C)c2)cc(C(C)(C)C)c1O [DTBP, 4,4′-dithiobis(2,6-di-tert-butyl-phenol)] | – | significantly inhibited | significant decrease | did not increase medium lesion size at the aortic root (FIG. 12b) or affect plasma cholesterol | significant decrease | significantly decreasing | without effect | induced HO-1 expression | decreased | significantly increased | significantly increased | Total drug in the vessel wall ([1]; male, New Zealand White, 9 weeks): 235±64 pmol total drug per mg protein; Bioavailability relative to probucol [1]: greater bioavailability than probucol; Lesion size at the aortic root (apoE−/− mice; 0.02% DTBP, 5 months, FIG. 12b): did not increase; HDL-cholesterol (apoE−/− mice; apoE−/− mice, 0.02% DTBP, 5 months, FIG. 12h): does not lower HDL-cholesterol; Anti-atherosclerotic activity relative to probucol (apoE−/− mice; judged from aortic drug concentration and lesion inhibition): greater anti-atherosclerotic activity than probucol; Protection against balloon injury-induced intimal hyperplasia ([2]; 0.02% wt/wt in chow, 9 weeks, ABI at end of week three, FIG. 21): significant protection; Vessel content of non-oxidized lipid ([2]; 6 weeks after ABI, FIG. 13c): without altering; Vessel content of oxidized lipid ([2]; 6 weeks after ABI, FIG. 13d): without altering; Protection against balloon injury-induced intimal hyperplasia, dependence on concentration ([2]; I/M ratio 6 weeks after ABI, FIG. 14): in a concentration-dependent manner; Activity on a molar base relative to probucol ([2]; from relative aortic drug concentrations and in vivo protection): more active than probucol |
| CC(C)(Sc1cc(C(C)(C)C)c(O)c(C(C)(C)C)c1)Sc1cc(C(C)(C)C)c(O)c(C(C)(C)C)c1 [probucol] | 663±114 pmol total drug per mg protein | significantly inhibited | significant decrease | – | significant decrease | Inhibit Intimal Thickening | significantly reduced | induced HO-1 expression | decreased | significantly increased | significantly increased | – |

Reference: US20100004333A1, “COMPOSITIONS AND METHODS FOR TREATING CARDIOVASCULAR DISORDERS” (priority 2004, published 2010)
